Results: patent US11453647B2, “Benzimidazole derivatives as adenosine receptor antagonists” (Merck Patent GmbH, priority 2017, dated 2022)

How the values were obtained:
Assay type in all cases: cell-based
human A3 receptor = biological target: T1, human A3 receptor (Homo sapiens, UniProt P0DMS8); assay: functional cAMP (HTRF) assay, recombinant CHO cells expressing human A3 receptor, forskolin, agonist IB-MECA
T1 construct: expressed in transfected cells; host or cells: CHO
T1 sequence (P0DMS8 1-318): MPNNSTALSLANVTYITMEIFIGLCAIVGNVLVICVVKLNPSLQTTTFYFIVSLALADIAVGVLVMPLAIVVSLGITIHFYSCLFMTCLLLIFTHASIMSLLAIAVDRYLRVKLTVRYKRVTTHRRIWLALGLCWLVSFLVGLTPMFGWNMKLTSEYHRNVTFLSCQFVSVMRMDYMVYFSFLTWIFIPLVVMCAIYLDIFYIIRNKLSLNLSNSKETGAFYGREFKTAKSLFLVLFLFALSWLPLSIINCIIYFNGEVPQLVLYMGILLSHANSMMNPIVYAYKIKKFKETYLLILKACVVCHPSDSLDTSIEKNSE
How it was run: (§1)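 Recombinant CHO cells expressing A1 or A3 receptor (Gi-coupled) were stimulated with forskolin together with test compound and agonist (CPA for A1, IB-MECA for A3), incubated 30 min, then cellular cAMP was read by HTRF. Data were normalized to inhibitor control and DMSO neutral control, then curve-fitted.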

human A1 receptor = biological target: T2, human A1 receptor (Homo sapiens, UniProt P30542); assay: functional cAMP (HTRF) assay, recombinant CHO cells expressing human A1 receptor, forskolin, agonist CPA
T2 construct: expressed in transfected cells; host or cells: CHO
T2 sequence (P30542 1-326): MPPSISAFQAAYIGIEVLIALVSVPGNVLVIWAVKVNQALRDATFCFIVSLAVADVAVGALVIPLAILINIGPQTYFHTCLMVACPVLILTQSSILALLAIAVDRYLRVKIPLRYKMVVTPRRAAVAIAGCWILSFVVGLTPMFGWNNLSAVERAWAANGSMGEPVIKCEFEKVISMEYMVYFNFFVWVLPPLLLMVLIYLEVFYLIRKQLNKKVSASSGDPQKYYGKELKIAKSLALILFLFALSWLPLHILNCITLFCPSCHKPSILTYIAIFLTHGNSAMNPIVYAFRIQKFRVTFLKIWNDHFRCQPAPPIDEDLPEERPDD
How it was run: as §1

human A2A receptor = biological target: T3, human A2A receptor (Homo sapiens, UniProt P29274); assay: functional cAMP (HTRF) assay, recombinant HEK293 cells expressing human A2A receptor, agonist NECA
T3 construct: expressed in transfected cells; host or cells: HEK293

A2B receptors = biological target: T4, A2B receptors (Homo sapiens, UniProt P29275); assay: functional cAMP (HTRF) assay, recombinant HEK293 cells expressing human A2B receptor, agonist NECA; parameters: expressed in transfected cells; host or cells: HEK293
T4 sequence (P29275 1-332): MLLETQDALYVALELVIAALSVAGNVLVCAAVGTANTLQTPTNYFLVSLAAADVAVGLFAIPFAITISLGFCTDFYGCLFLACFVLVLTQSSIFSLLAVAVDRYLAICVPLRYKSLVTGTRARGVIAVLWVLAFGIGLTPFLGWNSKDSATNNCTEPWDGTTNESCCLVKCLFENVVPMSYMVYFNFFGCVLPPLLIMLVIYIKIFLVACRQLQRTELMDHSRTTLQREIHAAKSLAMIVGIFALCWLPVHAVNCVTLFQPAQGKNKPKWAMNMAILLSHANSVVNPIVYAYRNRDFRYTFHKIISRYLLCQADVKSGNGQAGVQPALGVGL

T3 sequence (P29274 whole entry): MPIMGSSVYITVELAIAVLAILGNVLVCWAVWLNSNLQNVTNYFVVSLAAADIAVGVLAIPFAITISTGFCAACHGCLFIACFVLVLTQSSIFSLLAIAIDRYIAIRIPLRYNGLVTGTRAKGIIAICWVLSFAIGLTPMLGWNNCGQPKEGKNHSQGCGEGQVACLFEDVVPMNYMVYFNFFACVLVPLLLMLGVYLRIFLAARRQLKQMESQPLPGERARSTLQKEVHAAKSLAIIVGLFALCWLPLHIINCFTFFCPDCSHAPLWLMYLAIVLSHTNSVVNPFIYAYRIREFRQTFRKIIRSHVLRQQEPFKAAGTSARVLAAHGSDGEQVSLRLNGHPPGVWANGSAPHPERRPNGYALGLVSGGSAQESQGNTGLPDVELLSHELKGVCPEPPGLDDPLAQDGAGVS

Row | IC50 (human A3 receptor) [nM] | IC50 (human A1 receptor) [nM] | IC50 (human A2A receptor) [nM] | IC50 (A2B receptors) [nM] | Structure (SMILES)
1 | > 1000 | > 1000 | < 10 | > 1000 | C#CCC1(O)CCN(C(=O)Nc2nc3c(C4CCOCC4)ccc(OC)c3[nH]2)CC1 [compound 102, 4-hydroxy-N-[7-methoxy-4-(oxan-4-yl)-1H-1,3-benzodiazol-2-yl]-4-(prop-2-yn-1-yl)piperidine-1-carboxamide]
2 | > 1000 | > 1000 | < 10 | > 1000 | COc1ccc(C2CCOCC2)c2nc(NC(=O)c3ccc(CN(C)C)cc3)[nH]c12 [compound 88, 4-[(dimethylamino)methyl]-N-[7-methoxy-4-(oxan-4-yl)-1H-1,3-benzodiazol-2-yl]benzamide]
3 | < 100 | > 1000 | < 10 | < 100 | COc1ccc(-c2cnn(C)c2)c2[nH]c(NC(=O)c3cnn(C)c3)nc12 [compound 160, N-[7-methoxy-4-(1-methyl-1H-pyrazol-4-yl)-1H-1,3-benzodiazol-2-yl]-1-methyl-1H-pyrazole-4-carboxamide]
4 | < 1000 | < 1000 | < 10 | < 100 | COc1ccc(-c2cccc(F)c2)c2[nH]c(NC(=O)c3c[nH]cn3)nc12 [compound 265, N-[7-(3-fluorophenyl)-4-methoxy-1H-1,3-benzodiazol-2-yl]-1H-imidazole-4-carboxamide]
5 | < 1000 | > 1000 | < 10 | > 1000 | COc1ccc(-c2cnn(C)c2)c2nc(NC(=O)c3ccnc(N4CC[C@](C)(O)C4)c3)[nH]c12 [compound 104, 2-[(3S)-3-hydroxy-3-methylpyrrolidin-1-yl]-N-[7-methoxy-4-(1-methyl-1H-pyrazol-4-yl)-1H-1,3-benzodiazol-2-yl]pyridine-4-carboxamide]
6 | < 1000 | < 1000 | < 10 | < 10 | COc1ccc(-c2ccc(F)cc2)c2nc(NC(=O)c3ccc(C(=O)N(C)C)cc3)[nH]c12 [compound 316, N4-[4-(4-fluorophenyl)-7-methoxy-1H-1,3-benzodiazol-2-yl]-N1,N1-dimethylbenzene-1,4-dicarboxamide]
7 | < 1000 | < 1000 | < 100 | < 100 | COc1ccc(-c2cnn(Cc3cccnc3)c2)c2[nH]c(NC(=O)N3CCC(C)(O)CC3)nc12 [compound 237, 4-hydroxy-N-(4-methoxy-7-{1-[(pyridin-3-yl)methyl]-1H-pyrazol-4-yl}-1H-1,3-benzodiazol-2-yl)-4-methylpiperidine-1-carboxamide]
8 | < 1000 | > 1000 | < 10 | < 10 | COc1cc(F)c(C2=CCOCC2)c2nc(NC(=O)c3ccc(C(=O)N(C)C)cc3)[nH]c12 [compound 262, N4-[4-(3,6-dihydro-2H-pyran-4-yl)-5-fluoro-7-methoxy-1H-1,3-benzodiazol-2-yl]-N1,N1-dimethylbenzene-1,4-dicarboxamide]
9 | < 1000 | > 1000 | < 100 | < 1000 | COc1ccc(-c2cnn(C)c2)c2nc(NC(=O)c3ccc4occc4c3)[nH]c12 [compound 80, N-[7-methoxy-4-(1-methyl-1H-pyrazol-4-yl)-1H-1,3-benzodiazol-2-yl]-1-benzofuran-5-carboxamide]
10 | < 1000 | > 1000 | < 10 | > 1000 | COc1ccc(C2CCCCC2)c2nc(NC(=O)N3CCC(C)(O)CC3)[nH]c12 [compound 16, 4-Hydroxy-4-methyl-piperidine-1-carboxylic acid (4-cyclohexyl-7-methoxy-1H-benzoimidazol-2-yl)-amide]

Second part, the compound before the results:

Row | Structure (SMILES) | IC50 (human A3 receptor) [nM] | IC50 (human A1 receptor) [nM] | IC50 (human A2A receptor) [nM] | IC50 (A2B receptors) [nM]
11 | COCCn1cc(C(=O)Nc2nc3c(-c4cccc5c4CCN5)ccc(OC)c3[nH]2)cn1 [compound 283, N-[4-(2,3-dihydro-1H-indol-4-yl)-7-methoxy-1H-1,3-benzodiazol-2-yl]-1-(2-methoxyethyl)-1H-pyrazole-4-carboxamide] | < 1000 | > 1000 | < 100 | < 100
12 | COc1ccc(-c2ccccc2F)c2nc(NC(=O)c3ccc(C(=O)N(C)C)cc3)[nH]c12 [compound 242, N4-[4-(2-fluorophenyl)-7-methoxy-1H-1,3-benzodiazol-2-yl]-N1,N1-dimethylbenzene-1,4-dicarboxamide] | < 1000 | < 1000 | < 10 | < 10
13 | COc1ccc(-c2cnn(C)c2)c2nc(NC(=O)c3ccnc(N4CCOCC4)c3)[nH]c12 [compound 26, N-[7-Methoxy-4-(1-methyl-1H-pyrazol-4-yl)-1H-benzoimidazol-2-yl]-2-morpholin-4-yl-isonicotinamide] | < 1000 | > 1000 | < 10 | > 1000
14 | COc1ccc(N2CCOCC2)c2nc(NC(=O)c3cnn(C(CO)CCl)c3)[nH]c12 (stereo not shown) [compound 86, 1-(1-chloro-3-hydroxypropan-2-yl)-N-[7-methoxy-4-(morpholin-4-yl)-1H-1,3-benzodiazol-2-yl]-1H-pyrazole-4-carboxamide] | > 1000 | > 1000 | < 10 | > 1000
15 | COc1ccc(C2CCOCC2)c2nc(NC(=O)c3ccnc(N4CC[C@]5(CCOC5)C4)c3)[nH]c12 [compound 154, N-[7-methoxy-4-(oxan-4-yl)-1H-1,3-benzodiazol-2-yl]-2-[(5S)-2-oxa-7-azaspiro[4.4]nonan-7-yl]pyridine-4-carboxamide] | < 1000 | > 1000 | < 10 | > 1000
16 | COc1ccc(C2CCOCC2)c2nc(NC(=O)c3ccc4c(c3)CCO4)[nH]c12 [compound 108, N-[7-methoxy-4-(oxan-4-yl)-1H-1,3-benzodiazol-2-yl]-2,3-dihydro-1-benzofuran-5-carboxamide] | < 1000 | > 1000 | < 10 | < 1000
17 | COc1ccc(-c2cccnc2)c2nc(NC(=O)c3ccc(C(=O)N(C)C)cc3)[nH]c12 [compound 259, N4-[7-methoxy-4-(pyridin-3-yl)-1H-1,3-benzodiazol-2-yl]-N1,N1-dimethylbenzene-1,4-dicarboxamide] | > 1000 | < 1000 | < 10 | < 10
18 | COc1ccc(C2=CCOCC2)c2nc(NC(=O)C3CC3)[nH]c12 [compound 314, N-[4-(3,6-dihydro-2H-pyran-4-yl)-7-methoxy-1H-1,3-benzodiazol-2-yl]cyclopropanecarboxamide] | < 1000 | > 1000 | < 100 | < 1000
19 | COc1ccc(-c2cccnc2)c2nc(NC(=O)C3CC3)[nH]c12 [compound 315, N-[7-methoxy-4-(pyridin-3-yl)-1H-1,3-benzodiazol-2-yl]cyclopropanecarboxamide] | < 1000 | > 1000 | < 100 | < 100
20 | COc1ccc(C2CCOCC2)c2nc(NC(=O)c3ccnc(N4CCC(C)(O)C4)c3)[nH]c12 (stereo not shown) [compound 122, 2-(3-hydroxy-3-methylpyrrolidin-1-yl)-N-[7-methoxy-4-(oxan-4-yl)-1H-1,3-benzodiazol-2-yl]pyridine-4-carboxamide] | > 1000 | > 1000 | < 10 | > 1000
21 | COCCOc1cccc(-c2ccc(OC)c3nc(NC(=O)N4CCC(C)(O)CC4)[nH]c23)c1 [compound 236, 4-hydroxy-N-{4-methoxy-7-[3-(2-methoxyethoxy)phenyl]-1H-1,3-benzodiazol-2-yl}-4-methylpiperidine-1-carboxamide] | < 1000 | < 1000 | < 10 | < 100
22 | COc1ccc(C2CCOCC2)c2nc(NC(=O)c3ccnc(N4CC[C@@]5(CCOC5)C4)c3)[nH]c12 [compound 153, N-[7-methoxy-4-(oxan-4-yl)-1H-1,3-benzodiazol-2-yl]-2-[(5R)-2-oxa-7-azaspiro[4.4]nonan-7-yl]pyridine-4-carboxamide] | > 1000 | > 1000 | < 10 | > 1000
